The numbers were not newly measured in patent US20150190345A1, “Controlled Release Formulations of Lorazepam” (priority 2014, published 2015), which cites them from elsewhere.

For data set [1] the following is noted: according to the package insert.

`O=C1Nc2ccc(Cl)cc2C(c2ccccc2Cl)=NC1O` (centres unmarked) [Lorazepam, 7-chloro-5-(2-chlorophenyl)-1,3-dihydro-3-hydroxy-2H-1,4-benzodiazepin-2-one]: the solubility in water result was “almost insoluble in water”. Besides, the “half-life in human plasma” value in data set [1] is on record as “about 12 hours”.
